Laboratory results published in the supplement of paper PMC8671470.

What was measured:
Conditions in all cases: 72 h
SHI-1 [1] = test: cell viability (% survival relative to DMSO control, bortezomib = 0%); higher = less cytotoxic
Summary of the method: (§1)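 Reported values are percent survival from duplicate wells, averaged. Fifteen myeloid leukaemia cell lines were treated in 384-well plates with compounds at 1, 10, 100, 1000 or 10000 nM for 72 h at 37 °C in 5% CO2. Signals from CellTiter-Glo luminescence were scaled with vehicle as 100% and a 10 µM positive control as 0%.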

HEL [2] = test: as above
Summary of the method: as §1

KU-812 [3] = test: as above
Summary of the method: as §1

KG-1 [4] = test: as above
Summary of the method: as §1

NOMO-1 [5] = test: as above
Summary of the method: as §1

KCL-22 [6] = test: as above
Summary of the method: as §1

LAMA-84 [7] = test: as above
Summary of the method: as §1

MV4-11 [8] = test: as above
Summary of the method: as §1

THP-1 [9] = test: as above
Summary of the method: as §1

BV-173 [10] = test: as above
Summary of the method: as §1

ML-2 [11] = test: as above
Summary of the method: as §1

Mono-Mac-6 [12] = test: as above
Summary of the method: as §1

MOLM-13 [13] = test: as above
Summary of the method: as §1

HL-60 [14] = test: as above
Summary of the method: as §1

SHI-1 [15] = tested on: SHI-1
Summary of the method: (§2)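 Fifteen myeloid leukaemia lines in RPMI 1640 were treated for 72 h at 37 °C and 5% CO2 with five tenfold doses from 1 to 10,000 nM, in duplicate. ATP luminescence was normalised to vehicle and to a positive control at 10 µM, then fitted with a four-parameter log-logistic model. The IC50 came from these fits.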

HEL [16] = tested on: HEL
Summary of the method: as §2

K-562 = tested on: K-562
Summary of the method: as §2

KU-812 [17] = tested on: KU-812
Summary of the method: as §2

KG-1 [18] = tested on: KG-1
Summary of the method: as §2

NOMO-1 [19] = tested on: NOMO-1
Summary of the method: as §2

KCL-22 [20] = tested on: KCL-22
Summary of the method: as §2

LAMA-84 [21] = tested on: LAMA-84
Summary of the method: as §2

MV4-11 [22] = tested on: MV4-11
Summary of the method: as §2

THP-1 [23] = tested on: THP-1
Summary of the method: as §2

BV-173 [24] = tested on: BV-173
Summary of the method: as §2

ML-2 [25] = tested on: ML-2
Summary of the method: as §2

Mono-Mac-6 [26] = tested on: Mono-Mac-6
Summary of the method: as §2

MOLM-13 [27] = tested on: MOLM-13
Summary of the method: as §2

HL-60 [28] = tested on: HL-60
Summary of the method: as §2

HL-60 [29] = test: area under dose-response curve (viability, 1 nM-10 uM) (fraction (0-1)); higher = more sensitive
Summary of the method: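 For each screen, HL-60 cells in RPMI 1640 with 10% FBS carried either DMSO or 100 nM of one of three metabolic inhibitors while the full library was applied at five tenfold concentrations, 1–10,000 nM, in duplicate. Plates were 384-well and were kept 72 h at 37 °C, 5% CO2. Viability, measured by CellTiter-Glo, was normalised to wells with DMSO and with 10 μM proteasome inhibitor. Where area under the curve appears, it was fitted by four-parameter log-logistic models in drc and PharmacoGx.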

CC(C)c1cc2c(c(O)c1O)[C@@]1(C(=O)O)CCCC(C)(C)[C@@H]1CC2 [Carnosic acid]
Conditions	area under dose-response curve, co-treatment: AZD3965 100 nM	area under dose-response curve, co-treatment: DMSO vehicle	area under dose-response curve, co-treatment: GSK2194069 100 nM	area under dose-response curve, co-treatment: pictilisib 100 nM	cell viability, 1 nM [%]	cell viability, 10 nM [%]	cell viability, 100 nM [%]	cell viability, 1000 nM [%]	cell viability, 10000 nM [%]
BV-173 [10]	–	–	–	–	87.5	96.7	98.2	82.6	43.8
HEL [2]	–	–	–	–	100	112	92.1	100	97.4
HL-60 [14]	–	–	–	–	99.7	97.3	89.3	91.5	109
HL-60 [29]	< 0.0301	< 0.0301	< 0.0301	< 0.0301	–	–	–	–	–
KCL-22 [6]	–	–	–	–	101	104	73.1	103	90.7
KG-1 [4]	–	–	–	–	92.4	96	96	104	103
KU-812 [3]	–	–	–	–	94.3	100	89.4	92.6	74.1
LAMA-84 [7]	–	–	–	–	97.7	98	102	91.1	96.6
ML-2 [11]	–	–	–	–	93.4	105	85.9	94.5	67.6
MOLM-13 [13]	–	–	–	–	101	120	84.7	124	106
MV4-11 [8]	–	–	–	–	98.5	103	93.5	91.7	79.9
Mono-Mac-6 [12]	–	–	–	–	92.7	102	103	90.4	64.3
NOMO-1 [5]	–	–	–	–	96.5	100	96.9	99	102
SHI-1 [1]	–	–	–	–	101	112	95	112	108
THP-1 [9]	–	–	–	–	98.3	101	109	83.9	66.9

Conditions	IC50 (cell viability) [µM]
BV-173 [24]	5.01
HEL [16]	> 10
HL-60 [28]	> 10
K-562	> 10
KCL-22 [20]	> 10
KG-1 [18]	> 10
KU-812 [17]	> 10
LAMA-84 [21]	> 10
ML-2 [25]	> 10
MOLM-13 [27]	> 10
MV4-11 [22]	> 10
Mono-Mac-6 [26]	> 10
NOMO-1 [19]	> 10
SHI-1 [15]	> 10
THP-1 [23]	> 10
